The source of these data is ChEMBL document CHEMBL5233269, “Anticancer potential of spirocompounds in medicinal chemistry: A pentennial expedition” (Eur J Med Chem, 2021).

Data set [1] relates to HepG2. In words: Antiproliferative activity against human HepG2 cells by MTT assay. Type of data set: functional, cell-based. Background: Tetrazolium assays rely on reduction of a dye to a coloured formazan, in cell work by metabolically active cells.
Another data set relates to L02. Put plainly: Antiproliferative activity against human L02 cells by MTT assay. Type of data set: functional, cell-based.
Data set [2] has as its system MCF7. Put plainly: Anticancer activity against human MCF7 cells assessed as inhibition of cell viability. Type of data set: functional, cell-based.
For data set [3], the system named is HepG2. In words: Anticancer activity against human HepG2 cells. The data set is classed as functional, cell-based.
The next data set has as its system Ehrlich. Put plainly: Antitumor activity against mouse Ehrlich ascites carcinoma xenografted in mouse model assessed tumor growth inhibition relative to control. Type of data set: functional. More on the design: scale not given: the % may be the effect or the level left.
The target of data set [4] is T1, Amine oxidase [flavin-containing] A (Rattus norvegicus, UniProt P21396).
T1 sequence (P21396 whole entry): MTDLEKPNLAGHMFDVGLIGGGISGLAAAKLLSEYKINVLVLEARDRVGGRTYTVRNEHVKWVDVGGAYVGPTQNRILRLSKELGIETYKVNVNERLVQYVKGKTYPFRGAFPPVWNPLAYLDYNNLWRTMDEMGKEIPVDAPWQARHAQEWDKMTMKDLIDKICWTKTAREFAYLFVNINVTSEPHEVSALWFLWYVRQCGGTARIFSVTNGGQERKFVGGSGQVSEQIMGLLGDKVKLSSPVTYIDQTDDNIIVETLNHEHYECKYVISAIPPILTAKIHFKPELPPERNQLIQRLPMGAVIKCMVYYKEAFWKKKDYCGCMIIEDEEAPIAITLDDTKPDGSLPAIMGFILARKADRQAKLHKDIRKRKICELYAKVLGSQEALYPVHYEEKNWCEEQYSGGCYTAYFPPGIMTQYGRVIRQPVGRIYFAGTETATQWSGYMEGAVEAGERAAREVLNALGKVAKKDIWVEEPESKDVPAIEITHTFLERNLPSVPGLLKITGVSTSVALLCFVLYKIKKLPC
Put plainly: Inhibition of rat brain MAO-A relative to control. Type of data set: tissue-based.

For another data set, the system named is Sarcoma-180. In words: Antitumor activity against mouse Sarcoma-180 xenografted in mouse model assessed tumor growth inhibition relative to control. Type of data set: functional. Set-up: scale not given: the % may be the effect or the level left.
The test system of data set [5] is HeLa. Put plainly: Cytotoxicity against human HeLa cells incubated for 48 hrs by MTT assay. Type of data set: functional, cell-based.
Data set [6] has as its system HeLa. Put plainly: Cytotoxicity against human HeLa cells incubated for 24 hrs by MTT assay. Type of data set: functional, cell-based.
The subject of a further data set is HCT-116. Put plainly: Cytotoxicity against human HCT-116 cells incubated overnight by MTT assay. The data set is classed as functional, cell-based.
Data set [7] deals with HepG2. Put plainly: Cytotoxicity against human HepG2 cells incubated overnight by MTT assay. The data set is classed as functional, cell-based.
For data set [8], the system named is MCF7. Put plainly: Anticancer activity against human MCF7 cells assessed as reduction in cell viability incubated for 48 hrs by MTT assay. Type of data set: functional, cell-based. As to conditions: MCF7, 48 h.
Data set [9] has as its system A549. In words: Anticancer activity against human A549 cells assessed as reduction in cell viability incubated for 48 hrs by MTT assay. The data set is classed as functional, cell-based. As to conditions: A549, 48 h.
The next data set relates to B16-F10. In words: Anticancer activity against mouse B16-F10 cells incubated for 48 hrs by MTT assay. Type of data set: functional, cell-based. As to conditions: B16-F10, 48 h.
Data set [10] can be described thus: Antiproliferative activity against human […] cells measured after 48 hrs by MTT assay. Type of data set: functional, cell-based.
For data set [11], the system named is MCF7. In words: Antiproliferative activity against human MCF7 cells measured after 48 hrs by MTT assay. The data set is classed as functional, cell-based. The conditions noted are these: MCF7, 48 h.
The test system of data set [12] is A549. Put plainly: Antiproliferative activity against human A549 cells measured after 48 hrs by MTT assay. Type of data set: functional, cell-based. The conditions noted are these: A549, 48 h.
A further data set deals with HL-60. In words: Antiproliferative activity against human HL-60 cells measured after 48 hrs by MTT assay. The data set is classed as functional, cell-based. The conditions noted are these: HL-60, 48 h.
The subject of a further data set is HT-29. In words: Antiproliferative activity against human HT-29 cells measured after 48 hrs by MTT assay. The data set is classed as functional, cell-based. As to conditions: HT-29, 48 h.
Data set [13] relates to HepG2. In words: Antiproliferative activity against human HepG2 cells measured after 48 hrs by MTT assay. Type of data set: functional, cell-based. As to conditions: HepG2, 48 h.
Another data set deals with SW480. In words: Antiproliferative activity against human SW480 cells measured after 48 hrs by MTT assay. The data set is classed as functional, cell-based. The conditions noted are these: SW480, 48 h.
Data set [14] has as its system HeLa. Put plainly: Antiproliferative activity against human HeLa cells measured after 48 hrs by MTT assay. The data set is classed as functional, cell-based.
In data set [15] the test system is MCF7. In words: Anticancer activity against human MCF7 cells at 10 uM by MTT assay relative to control. Type of data set: functional.
The nature of data set [16]: Inhibition of cell proliferation in human MCF-10A cells at 50 uM by MTT colorimetric cell viability assay relative to control. The data set is classed as toxicity, cell-based.
Data set [17] deals with MCF7. In words: Inhibition of cell proliferation in human MCF7 cells. The data set is classed as functional, cell-based.

The structures appear in SMILES notation.

Broadly, the IC50 is the concentration needed to halve the response being measured. As to `O=C1C(=O)C2C(N=C3N=NNN3C23C(=O)Nc2ccc(F)cc23)c2ccccc21` (stereo unspecified), the results for the IC50 with HepG2 [1] and in the data set on L02 were 2.86 µM and 58.9 µM, respectively.

For the compound `N#CC1=C(N)NC2=C(CCCCCC2)C12C(=O)Nc1ccccc12` (stereo unspecified), the IC50 in the data set with MCF7 [2] amounted to 32 µM; in the data set with HepG2 [3], 39 µM.

As to `CCn1c(SCC(=O)Nc2cccc(C(F)(F)F)c2)nc2c(c1=O)C1(CCCCC1)Cc1ccccc1-2`, the Activity in the data set with Ehrlich is given as 70%; in the data set on Sarcoma-180 it was 42%. Besides, in data set [4], the “inhibition (INH)” value amounted to 15%.

As to `CCn1c(SCC(=O)Nc2ccccc2)nc2c(c1=O)C1(CCCCC1)Cc1ccccc1-2`, the figures for the Activity in the data set with Ehrlich and with Sarcoma-180 were 75% and 55%, respectively. The “inhibition (INH)” value in [4] amounted to 32%.

On to `O=C(c1ccc(F)cc1)C1C(C(=O)c2ccc(F)cc2)C12C(=O)Nc1ccccc12` (stereo unspecified), for which the IC50 was 6.25 µM with HeLa [5] and 11.2 µM in the data set with HeLa [6].

Regarding `O=C(/C=C/c1ccc(Br)cc1)[C@H]1[C@H](c2ccc(Br)cc2)C2CSCN2[C@]12C(=O)Nc1ccccc12` (stereo partly specified), the IC50 with HCT-116 was determined as 3 µM; in the data set on HepG2 [7], 0.8 µM.

For `COC1=CC2(C=C(C(=O)NNc3ccc(OC(F)(F)F)cc3)c3cc(OC)cc(OC)c32)C(OC)=CC1=O` (stereo unspecified), the IC50 was 15.3 µM in the data set on MCF7 [8], 17.9 µM in the data set with A549 [9] and 19.3 µM in the data set on B16-F10.

On to `CC(C)CCC[C@@H](C)[C@@H]1CCC2C3C[C@@]4(N=C5C=CC(Cl)=CN5/C4=N\Cc4ccccc4)C4C[C@@H](Cl)CC[C@]4(C)C3CC[C@@]21C` (stereo partly specified), for which the IC50 in [10] amounted to 4.67 µM; with MCF7 [11], 3.24 µM; in the data set with A549 [12], 3.43 µM; with HL-60, 5.17 µM; in the data set on HT-29 it was 4.63 µM; in the data set on HepG2 [13] it was 5.37 µM. In addition, the 50% inhibitory concentration (IC50) was 2.33 µM in the data set on SW480 and 5.23 µM in the data set with HeLa [14].

In the case of `O=C1C(=O)C2C(N=C3N=NNN3C23C(=O)Nc2c(Cl)cccc23)c2ccccc21` (stereo unspecified), the IC50 amounted to 3.03 µM with HepG2 [1] and 49.5 µM in the data set on L02.

The term inhibition denotes the share of the control response that was lost under treatment. On to `CCOC(=O)c1[nH]nc2c1C1(C(=O)N(C(C)=O)c3ccccc31)C(C#N)=C(N)O2` (stereo unspecified), for which at 10 µM the inhibition with MCF7 [15] was 15.7%.

`CCn1c(SCc2ccc(Cl)cc2)nc2c(c1=O)C1(CCCCC1)Cc1ccccc1-2`: the Activity in the data set with Ehrlich is recorded as 56%; in the data set with Sarcoma-180 it was 40%. Moreover, the “inhibition (INH)” value in data set [4] is 50%.

As to `Cc1cn(CN2C(=O)C3(c4ccccc42)C(C(=O)c2ccccc2)C3C(=O)c2ccc(Cl)cc2)nn1` (stereo unspecified), the IC50 in the data set on HeLa [5] came out at 4.5 µM; with HeLa [6] it was 9.3 µM.

`N#CC1=C(N)NC2=C(CCCC2)C12C(=O)Nc1ccc(I)cc12` (stereo unspecified): the values for the half-maximal inhibitory concentration (IC50) with MCF7 [2] and with HepG2 [3] were 28 µM and 26 µM, respectively.

For `N#CC1=C(N)NC2=C(CCCCC2)C12C(=O)Nc1ccccc12` (stereo unspecified), the IC50 turned out to be 18 µM in the data set on MCF7 [2] and 20 µM in the data set on HepG2 [3].

Broadly, the EC50 is the concentration that produces a half-maximal response. Regarding `O=C1Nc2ccccc2C12CCNC2c1cccc(F)c1` (stereo unspecified), testing at 50 µM in data set [16] gave an inhibition of 4.48%. In the data set with MCF7 [17], this compound registered an EC50 of 6 µM.

In the case of `CC(C)CCC[C@@H](C)[C@@H]1CCC2C3C[C@@]4(N=C5C=CC=CN5/C4=N\c4ccccc4)C4C[C@@H](Cl)CC[C@]4(C)C3CC[C@@]21C` (stereo partly specified), the IC50 in [10] amounted to 3.17 µM; with MCF7 [11], 3.93 µM; in the data set on A549 [12] it was 3.09 µM; in the data set with HL-60, 2.62 µM; in the data set on HT-29, 2.18 µM; with HepG2 [13], 5.32 µM. The IC50 in the data set with SW480 came out at 3.42 µM; in the data set on HeLa [14] it was 5.41 µM.

Turning to `CC(=O)O[C@H]1CC[C@]2(C)C3CC[C@@]4(C)C(CC[C@H]4[C@H](C)CCCC(C)C)C3C[C@@]3(N=C4C=CC=CN4/C3=N\c3ccccc3)C2C1` (stereo partly specified), the IC50 in data set [10] came out at 5.35 µM; in the data set with MCF7 [11] it was 4.31 µM; in the data set with A549 [12], 5.39 µM; in the data set with HL-60 it was 4.46 µM; with HT-29, 5.04 µM; in the data set with HepG2 [13], 2.43 µM. The IC50 in the data set with SW480 amounted to 5 µM; in the data set with HeLa [14], 3.56 µM.

In the data set on L02, `Cc1coc2c1C(=O)C(=O)c1c-2ccc2c1CCCC2(C)C` [TANSHINONE IIA] came in with an IC50 of 65.3 µM.
